Assay [1] addresses AChE (Electrophorus electricus, UniProt O42275). Description: ThT displacement from AChE. Type of assay: binding. To be noted: quenching of ThT-AChE fluorescence, 0.1 M phosphate buffer pH 8.0.
Assay [2] deals with T1, AChE from Electrophorus electricus (electric eel) (Electrophorus electricus, UniProt O42275). Kind of assay: Ellman AChE inhibition and kinetics in HSA matrix. Type of assay: biochemical. The following applies: for ΔrIC50, relative decrease in inhibition potency in HSA versus buffer: (IC50(HSA)-IC50(Buffer))/IC50(Buffer)x100; for Vmax / α / α': HSA medium (in parentheses); for nH (Hill coefficient): HSA medium, values in parentheses. (In Ellman's method for cholinesterases, released thiocholine reacts with DTNB.)
T1 sequence (O42275 24-633): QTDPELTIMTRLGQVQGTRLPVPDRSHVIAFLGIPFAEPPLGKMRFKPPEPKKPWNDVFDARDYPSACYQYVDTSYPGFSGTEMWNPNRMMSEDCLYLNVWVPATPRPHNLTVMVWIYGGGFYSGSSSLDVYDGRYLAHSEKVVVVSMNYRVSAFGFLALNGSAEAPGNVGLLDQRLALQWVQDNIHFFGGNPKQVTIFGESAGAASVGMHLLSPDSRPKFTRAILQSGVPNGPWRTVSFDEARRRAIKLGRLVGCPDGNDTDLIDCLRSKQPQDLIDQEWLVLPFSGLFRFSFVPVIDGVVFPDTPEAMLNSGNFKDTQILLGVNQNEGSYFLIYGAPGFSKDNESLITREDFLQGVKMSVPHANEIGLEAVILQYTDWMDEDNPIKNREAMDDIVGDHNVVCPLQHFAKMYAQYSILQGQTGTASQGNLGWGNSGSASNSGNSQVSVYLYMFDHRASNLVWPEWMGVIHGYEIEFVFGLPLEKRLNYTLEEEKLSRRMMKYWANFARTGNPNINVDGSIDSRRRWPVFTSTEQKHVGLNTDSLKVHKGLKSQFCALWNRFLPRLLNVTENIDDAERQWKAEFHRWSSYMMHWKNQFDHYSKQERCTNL

Assay [3] has as its target T1, AChE from Electrophorus electricus (electric eel). Kind of assay: Ellman colorimetric AChE inhibition and kinetics in aqueous phosphate buffer. Type of assay: biochemical. The following applies: for nH (Hill coefficient) / Vmax / α / α': aqueous buffer.

“And” between values parts separate entries of the source, which are not always exact repeats. Equal values may be shown once.

As usually defined, the IC50 is the concentration that gives 50% inhibition. A higher IC50 goes with weaker potency. Broadly, the Vmax is the rate approached at saturating substrate.

AChE, sequence (O42275 24-633): as above

In the case of `Cc1cc(=O)c2ccc(N)cc2o1` [AMC, 7-amino-2-methylchromone], the “KSV (Stern-Volmer constant)” value in assay [1] worked out at 230000 M⁻¹. Also, the IC50 in assay [2] was 115 nM; in assay [3] it was 103 ± 11.9 nM. In addition, the “ΔrIC50, relative decrease in inhibition potency in HSA versus buffer” value in assay [2] was ~ 5% and 5%. Besides, the Vmax in assay [2] (inhibitor 5 nM) was found to be 711 ± 47 nM/s; in assay [2] (inhibitor 10 nM) it was 557 ± 39 nM/s; in assay [3] (inhibitor 5 nM), 670 ± 26 nM/s; in assay [3] (inhibitor 10 nM), 560 ± 39 nM/s. Also, the α in assay [2] (inhibitor 5 nM) was 1.2 (1.2); in assay [2] (inhibitor 10 nM), 1.5; in assay [3] (inhibitor 5 nM) it was 1.2 (1.2); in assay [3] (inhibitor 10 nM) it was 1.4. The “α'” value is 1.2 (1.2) in assay [2] (inhibitor 5 nM), 1.4 (1.4) in assay [2] (inhibitor 10 nM), 1.2 (1.2) in assay [3] (inhibitor 5 nM) and 1.4 (1.4) in assay [3] (inhibitor 10 nM). Moreover, the figures for the “nH (Hill coefficient)” value in assay [2] and in assay [3] were 1.52±0.1 and 1.45 ± 0.1, respectively.
For `N#Cc1coc2ccccc2c1=O` [CyC, 3-cyanochromone], in assay [1], the “KSV (Stern-Volmer constant)” value worked out at 370000 M⁻¹. For the same compound, the IC50 is 113 nM in assay [2] and 85.1 ± 6.7 nM in assay [3]. Besides, in assay [2], the “ΔrIC50, relative decrease in inhibition potency in HSA versus buffer” value was ~ 32% and 32%. Besides, the Vmax worked out at 730 ± 17 nM/s in assay [2] (inhibitor 5 nM), 671 ± 30 nM/s in assay [2] (inhibitor 10 nM), 631 ± 21 nM/s in assay [3] (inhibitor 5 nM) and 538 ± 31 nM/s in assay [3] (inhibitor 10 nM). Moreover, the α in assay [2] (inhibitor 5 nM) is on record as 1.1; in assay [2] (inhibitor 10 nM) it was 1.2; in assay [3] (inhibitor 5 nM) it was 1.3; in assay [3] (inhibitor 10 nM) it was 1.5. Moreover, the “α'” value in assay [2] (inhibitor 5 nM) came to 1.1; in assay [2] (inhibitor 10 nM), 1.2; in assay [3] (inhibitor 5 nM), 1.3; in assay [3] (inhibitor 10 nM), 1.5. Moreover, the “nH (Hill coefficient)” value in assay [2] was found to be 1.89±0.17; in assay [3] it was 1.51 ± 0.1.

For the origin of these results see paper PMC6637216 (BioImpacts : BI, 2019).
